In patent publication US12570603B2, “FABP4/5 inhibitors, methods of use and methods of making” (Novius Therapeutics, LLC, priority 2021, dated 2026):

Assays:
3T3-L1 adipocytes = experiment: Lipolysis (glycerol release) in mature adipocytes; type: cell-based, mouse
Protocol: (§1) 3) 3T3-L1: Mouse 3T3-L1 cells were differentiated in culture according to ATCC protocol to become mature adipocytes. At day 6 of the differentiation, compound treatment started. Cells were stained by Nile Red on day and color intensity in each cell was measured relative to Dapi staining. Lipolysis was measured by measuring glycerol levels using lipolysis kit (Cayman, USA) according to the manufacturer manual.
as §1, with “1)” for “3)”

PPARγ = experiment: Transactivation assay, PPRE luciferase reporter in COS-7 cells; type: cell-based; conditions: tested against rosiglitazone, FIG. 4
Protocol: (§2) COS-7 were cultured in 6-well plates and co-transfected with either a luciferase reporter driven by 3 copies of a PPRE and expression vector for either PPARδ, PPARα or PPARγ together with a vector harboring cDNA for β-galactosidase, serving as a transfection control. To test whether FABP4 or FABP5 mediate activation of their cognate receptors PPARγ and PPARδ, respectively, cells were also co-transfected with a plasmid harboring sequence of either FABP4 or FABP5. 18 h post-transfection, cells were placed in a serum-free medium and treated with agonist/compound. 18 h. later, cells were lysed, luciferase activity was assayed (Promega, WI, USA) and corrected for transfection efficiency by the activity of β-galactosidase.
(§3) COS-7 were cultured in 6-well plates and co-transfected with either a luciferase reporter driven by 3 copies of a PPRE and expression vector for either PPARδ, PPARα or PPARγ together with a vector harboring cDNA for β-galactosidase, serving as a transfection control. 18 h. post-transfection, cells were placed in a serum-free medium and treated with agonist/compound. 18 h. later, cells were lysed, luciferase activity was assayed (Promega, WI, USA) and corrected for transfection efficiency by the activity of β-galactosidase.

PPARδ = experiment: as above; type: cell-based; conditions: compared to GW0742, FIG. 5
Protocol: as §2, §3

[1] = system: PPARδ targets PDPK1 and CD47 in TNBC cells MB-231; experiment: Real-time PCR of PPARδ targets; type: cell-based; conditions: MB-231, 1 μM, 6 hours
Protocol: (§4) Cells were treated with a compound for 6 h. then lysed and RNA was extracted using Trizol, according to the manufacturer's instructions. cDNA was generated using GeneAmp RNA PCR (Applied Biosystems). qPCR was carried out using TaqMan chemistry and Assays-on-Demand probes (Applied Biosystems). 18s (4352930) rRNA was used for normalization. Relative expression was calculated as 2^−ΔΔCT.

MB-231 tumors = experiment: TNBC xenograft experiment; type: in vivo; conditions: NSG mice, B4 20 or 40 mg/kg IP 5 times a week, after 14 days
Protocol: Eight-week-old NSG […] females were injected subcutaneously into the right flank with 5×10^6 MB-231 cells 1:1 with matrigel. Treatments started the day after cells injections 5 days a week. Mice were treated with either vehicle (5% DMSO, 15%-HPCBD (PH 9.0) in water), 20 mg/kg, or 40 mg/kg B4 dissolved in vehicle. Tumor size was assessed twice per week using a digital caliper. Tumor volumes were determined by measuring the length (l) and the width (w) of the tumor and calculating the volume (V=lw^2/2). Mice were scarified 14 days after injection. Statistical significance between the control and treated mice in both experiments was evaluated using a Student's t test. Mouse experiments were conducted after approval by the institutional animal care and use committee at Case Western Reserve University.
TNBC xenograft model was used to test the efficacy of B4 in suppressing growth on tumors in vivo. 5×10^6 MB-231 cells were subcutaneously injected into the right flank of NSG mice. B4 (20, or 40 mg/kg) or a vehicle were IP injected 5 times a week and tumor growth was monitored.

[2] = system: RAW264.7 murine macrophage cells; experiment: LPS-stimulated proinflammatory cytokine expression by QPCR; type: cell-based; conditions: B4 0 to 5 μM, then LPS 100 ng/ml
Protocol: as §4
FIG. 33, FIG. 34, and FIG. 35 show the anti-inflammatory effects of compound B4 on RAW264.7 murine macrophage cells.

[3] = system: LX-2 hepatic stellate cells; experiment: Lipid uptake assay, Oil Red O staining of lipid droplets; type: cell-based, human
Protocol: 1) LX-2: Human LX-2 hepatic stellate cells were treated with compound for 2 days in the presence or absence of 2% lipid mixture (Sigma, USA) in the growth media. Cells were stained with Oil Red O and lipid content was quantified using ImageJ.

[4] = system: MB-231 shC and shF5 cells; experiment: Proliferation assay, MB-231 lines expressing control shRNA (shC) or FABP5 shRNA (shF5); type: cell-based; conditions: MB-231 shC vs shF5, different concentrations
Protocol: 2000 cells were plated in each well of 96-well plate. The next day cells were treated with compounds and incubated in Incucyte for 4 days. Images taken every 4 hours for the duration of the time were analyzed to calculate percentage of confluency in response to the treatments. Growth inhibition was calculated as 1−(percentage of viable cells out of untreated cells).

HepG2 cells = experiment: Lipid uptake assay, oleic acid, Nile Red (steatosis model); type: cell-based, human; conditions: OA 1 mM
Protocol: 2) Hepg2 cells: 5000 cells were plated in 96-well plate. The next day cells were treated with tested compounds for 4 hours and then treated with 1 mM oleic acid for additional 24 hours. Cells were then stained with Nile Red and Dapi and lipid content was quantified using Cytation5 (Agilent).
2) Hepg2 cells: 5000 cells were plated in 96-well plate. The next day cells were treated with tested compounds for 4 hours and then treated with 1 mM oleic acid for additional 24 hours. Cells were then stained with Nile Red and Dapi and lipid content was quantified.

[5] = system: PPARδ targets PDPK1 and CD47 in TNBC cells MB-157; experiment: Real-time PCR of PPARδ targets; type: cell-based, human; conditions: MB-157, 1 μM, 6 hours
Protocol: as §4

CC(C)Oc1cc(NC(=O)CSCC(=O)O)c(Cl)cc1Cl [Compound B4, 2-((2-((2,4-dichloro-5-isopropoxyphenyl)amino)-2-oxoethyl)thio)acetic acid]
basal lipolysis (glycerol release) (3T3-L1 adipocytes; basal): inhibited basal lipolysis | isoproterenol-stimulated lipolysis (glycerol release) (3T3-L1 adipocytes; isoproterenol-stimulated, relative to basal): more potent | activation of transcription by PPARγ (PPARγ): did not activate transcription | activation of transcription by PPARδ (PPARδ): did not active transcription | levels of endogenous PPARδ targets PDPK1 and CD47 [1]: significantly lower | growth of 231 tumors (MB-231 tumors): almost completely abolished growth | IL-1β mRNA level [2]: lower in the treated cells | IL-6 mRNA level [2]: lower in the treated cells | TNFα mRNA level [2]: lower in the treated cells | amount of lipid droplets (Oil Red O) ([3]; B4 alone, activated LX-2 cells): increased the amount of LD in the cells | lipid droplet size ([3]; co-treatment with 2% lipid mix and B4): increases the LD size even more | TNBC cell growth, shC versus shF5 [4]: suppressed TNBC cell growth only in the cells highly expressing FABP5 | uptake of lipids into hepatocytes (Nile Red) (HepG2 cells; B4 0.1 to 5 μM): prevented uptake of lipids into hepatocytes | size of the lipid droplets (HepG2 cells; B4 treated cells): significantly smaller droplets | levels of endogenous PPARδ targets PDPK1 and CD47 [5]: significantly lower
